One series has as its target T1, msDRD1 (Mus musculus, UniProt Q61616).
T1 construct: expressed in transfected cells; host or cells: HEK293T
As to conditions: cited from earlier work.

Another series deals with human DRD1 (hmDRD1). Particulars: cited from earlier work.
The nature of series [1]: In vivo pharmacokinetics, free brain concentration (LC/MS). Particulars: 10 mg/kg i.p. Also on record: species or system mouse. As for the experimental part: To measure free brain and plasma concentrations of DETQ in the mouse, male C57Bl6/N mice from Taconic Biosciences (Germantown, NY, USA) weighing 23–25 g (9–10 weeks old) were used for this study. The animals were acclimated for at least 72 hours after arrival from the breeder and housed five per cage in “shoe box” size cages with free access to food and water (lights on from 5 am to 5 pm) before use. The experiment was approved by the Institutional IACUC committee, and Eli Lilly is an AAALAC-certified facility. DETQ (Eli Lilly, see above) was formulated as a fine suspension in 20% HPBCD in purified water using ultrasonication. The drug was administered intraperitoneally at 10 mg/kg body weight (10 mL/kg. dose volume) with four animals per time point (0.25, 0.5, 0.75, 1, 1.5, and 2 hr). The animals were decapitated at the time points indicated above, and their frontal brains (mainly frontal cortex) were rapidly dissected and frozen. Blood was collected at decapitation, and plasma was separated by centrifugation. Both samples were then stored at −80 °C until further analysis. DETQ concentrations were measured in plasma and brain tissues by liquid chromatography with tandem mass spectrometry (LC/MS). The samples were analyzed using an AB Sciex API 4000 quadrupole mass spectrometer (Applied Biosystems, Foster City, CA) with a TurboIonSpray interface. Brain samples were homogenized in a methanol-water solution (20:80) using a probe sonicator. Both brain and plasma samples underwent extraction procedures. Calibration curves were established by spiking blank plasma or brain samples with an internal standard. The system utilized Shimadzu LC-10AD pumps controlled by an SCL-10A controller (Kyoto, Japan). Sample injections were performed by a Z-215 liquid handler (Gilson, Middleton, WI). Chromatographic separation of all compounds was achieved using a Betasil javelin C18 HPLC column, 20 mm × 2.1 mm, 5 μm (Thermo Fisher Scientific, Waltham, MA). The unbound fraction in brain tissue samples was determined by equilibrium dialysis in mouse brain homogenate mixtures after incubation of the compound for 4.5 hours. The unbound brain concentrations were calculated from the following equation[24]: Totalbrainconcentration*Unboundfractioninbrain=Unboundbrainconcentration(Cu,brain)

Another series concerns the target T2, msDRD2 (Mus musculus, UniProt P61168).
T2 construct: expressed in transfected cells; host or cells: HEK293T
The series can be described thus: NanoBit complementation assay of mini-Gi recruitment. It counts as cell-based. How it is done:
To measure the effect of DETQ on mini-G protein recruitment by different GPCRs we used a Nanoluciferase (NanoBit)-based complementation assay[26],[27]. For this HEK293T cells were seeded in six-well plates (Techno Plastic Products) at a density of 300,000 cells per well and co-transfected with plasmids encoding either hmDRD1, msDRD1, msDRD2, msDRD5, msADRA1a, msβ2AR or ms5HT6 carrying a C-terminally fused SmBiT, in combination with the corresponding mini-G protein probe[78] (mini-Gs: for DRD1, DRD5, β2AR, 5HT6R; mini-Gq: for ADRA1a; or mini-Gi: for DRD2), which were N-terminally fused to LgBiT, in a 1:1 DNA ratio using Effectene transfection reagent (Qiagen). […] The plate was incubated at 37 °C for 30 min, before the luminescence signal was measured at 37 °C using a Tecan Spark plate reader before and after the manual addition of 25 µl of either ligand solution (final concentrations ranging from 1 nM to 100 µM), pure Fluorobrite-DMEM or 25 µl of a DETQ solution (1 µM final concentration).
For in vitro luminescence assays, ligand traces were divided by buffer traces, the area under the curve for each trace was calculated using GraphPad Prism, values were normalized and fitted as dose response curve. […] The statistical significance was determined using Welch’s ANOVA followed by Dunnett’s multiple comparison test (comparison of ligand or vehicle to ligand). […]

T1 sequence (Q61616 whole entry): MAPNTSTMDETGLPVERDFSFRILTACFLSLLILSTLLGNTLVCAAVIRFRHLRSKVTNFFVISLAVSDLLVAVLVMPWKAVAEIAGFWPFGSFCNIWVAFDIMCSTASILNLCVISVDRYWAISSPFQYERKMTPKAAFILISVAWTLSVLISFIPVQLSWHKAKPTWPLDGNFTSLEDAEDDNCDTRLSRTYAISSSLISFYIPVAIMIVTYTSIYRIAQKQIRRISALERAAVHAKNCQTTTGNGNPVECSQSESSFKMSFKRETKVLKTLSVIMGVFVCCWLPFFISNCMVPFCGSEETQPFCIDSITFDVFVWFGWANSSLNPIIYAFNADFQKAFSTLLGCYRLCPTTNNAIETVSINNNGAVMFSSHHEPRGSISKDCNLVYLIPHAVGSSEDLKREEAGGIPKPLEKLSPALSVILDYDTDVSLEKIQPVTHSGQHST
T2 sequence (P61168 whole entry): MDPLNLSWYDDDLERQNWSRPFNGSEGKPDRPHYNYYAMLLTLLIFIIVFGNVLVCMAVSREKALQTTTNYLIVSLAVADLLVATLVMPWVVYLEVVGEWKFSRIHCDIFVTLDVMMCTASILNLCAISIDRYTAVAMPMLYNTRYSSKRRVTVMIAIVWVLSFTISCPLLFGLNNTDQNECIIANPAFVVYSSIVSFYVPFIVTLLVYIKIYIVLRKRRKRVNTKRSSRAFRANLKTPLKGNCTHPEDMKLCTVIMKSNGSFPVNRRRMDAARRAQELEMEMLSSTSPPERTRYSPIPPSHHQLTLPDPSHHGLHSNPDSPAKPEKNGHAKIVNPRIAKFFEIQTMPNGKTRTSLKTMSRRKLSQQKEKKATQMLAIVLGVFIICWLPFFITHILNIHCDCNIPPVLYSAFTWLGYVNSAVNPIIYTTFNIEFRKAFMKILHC

Turning to `C[C@H]1c2cccc(C(C)(C)O)c2C[C@H](CO)N1C(=O)Cc1c(Cl)cccc1Cl` [DETQ, 2-(2,6-dichlorophenyl)-1-((1S,3R)-3-(hydroxymethyl)-5-(2-hydroxypropan-2-yl)-1-methyl-3,4-dihydroisoquinolin-2(1H)-yl)ethan-1-one], at msDRD1, the Kb is 312 nM and the “fold less potent on msDRD1 than on hmDRD1” value is over 30 fold. Besides, on msDRD1 (potentiation of dopamine induced activation of cAMP, ref Hao et al., 2019, Wang et al., 2018), the “selectivity for human vs mouse D1 in potentiator mode” value is given as 30 x. Also, the “partial potentiation of dopamine (% of max potentiation)” value on msDRD1 (rodent (rat or mouse), ref Hao et al., 2019, Wang et al., 2018) was 45-53%. Besides, in the series with human DRD1 (hmDRD1), the Kb was 11.4 nM. Also, the “maximal potentiation of dopamine” value in the series with human DRD1 (hmDRD1) (human clones, ref Hao et al., 2019, Wang et al., 2018) is recorded as 75-85%. The “in vitro potency as a D1PAM at the hD1 receptor” value with human DRD1 (hmDRD1) (ref Svensson et al., 2017, Hao et al., 2019) is 11 nM. Also, in series [1] (2 hours post-injection), the “clearance from the brain” value was “almost completely cleared”. Besides, the concentration at 1 h in series [1] (male, C57Bl6/N, mouse, brain (frontal brain, unbound concentration), intraperitoneal, 1-hour post-injection, read-out: free brain level) is under 50 nM. The concentration at 15 min in series [1] (male, C57Bl6/N, mouse, brain (frontal brain, unbound concentration), intraperitoneal, 15 minutes after dosing, read-out: free brain level) was about 270 nM. Besides, in series [1] (male, C57Bl6/N, mouse, brain (frontal brain, unbound concentration), intraperitoneal, 45 minutes post-injection, read-out: free brain level), the concentration at 45 min was about 110 nM. For the same compound, the “agonist mode: direct agonist effect” value on msDRD2 (DETQ 1 µM alone) is recorded as “no direct agonist effect”. For the same compound, the “allosteric modulator mode: effect on agonist dose-response” value at msDRD2 (DETQ 1 µM, DA) is “No allosteric effect”.

These data come from PMC11219860, “A chemogenetic approach for dopamine imaging with tunable sensitivity” (Nature Communications, 2024).
